Test results published in patent US20230293485A1, “APPLICATION OF ARTEMISININ COMPOUND IN TREATMENT OF CORONAVIRUS INFECTION” (ACADEMY OF MILITARY MEDICAL SCIENCES, priority 2020, published 2023).
Where two headings read alike, the source gives them in different places.

Columns and labels:
SARS-CoV-2 = format: cell-based; settings: for Number of copies of viral genome (MOI = 0.05): Vero E6, 48 h; for Inhibitory activity on viral RNA load: dependence on dose (in words) / Viral nucleic acid load in vero E6 cells infected with SARS-CoV-2 (in words): 48 h after infection
Vero E6 cells = assay: Detection of drug cytotoxicity by CCK-8 kit; format: cell-based; settings: for Cell viability (% of negative control): 48 h
Experimental: The detection of drug cytotoxicity was performed by CCK-8 kit (Beoytime). Specific steps were as follows:
(1) 1×10^4 Vero E6 (ATCC) cells were inoculated into a 96-well plate and cultured at 37° C. for 8 hours.
(§1) (2) The test drug was diluted with DMSO to achieve an appropriate stock solution concentration, and then diluted with MEM medium (purchased from Gibco, Cat. No. 10370021) containing 2% FBS (purchased from Gibco, Cat. No. 16000044) to the same concentration as that for the drug treatment. The original medium in the 96-well plate was discarded, 100 μL of drug-containing MEM medium was added to the cells, and three replicate wells were made for each concentration. Negative controls (adding DMSO and medium to the cell wells without adding drug) and blank controls (no cells, adding DMSO and medium) were set. After the drug was added, the cells were cultured at 37° C. for 48 hours.
(3) 20 μL of CCK-8 solution (Beoytime) was added to the wells to be tested, mixed gently without generating air bubbles, and continued to incubate at 37° C. for 2 hours. OD450 was read on a microplate reader (purchased from Molecular Devices, model SpectraMax M5), and cell viability was calculated:
Cell viability (%)=(A(drug treatment group)−A(blank control))/(A(negative control)−A(blank control))×100%
wherein A represents reading of microplate reader.
as §1, with “of the” for “of”

Row | Compound | Number of copies of viral genome (MOI = 0.05) (SARS-CoV-2; 3.13 μM drug) [copies] | Number of copies of viral genome (MOI = 0.05) (SARS-CoV-2; 6.25 μM drug) [copies] | Number of copies of viral genome (MOI = 0.05) (SARS-CoV-2; 12.5 μM drug) [copies] | Number of copies of viral genome (MOI = 0.05) (SARS-CoV-2; 25 μM drug) [copies] | Number of copies of viral genome (MOI = 0.05) (SARS-CoV-2; 50 μM drug) [copies] | Inhibitory activity on viral RNA load: dependence on dose (in words) (SARS-CoV-2) | Viral nucleic acid load in vero E6 cells infected with SARS-CoV-2 (in words) (SARS-CoV-2) | Cell viability (% of negative control) (Vero E6 cells; 0.78 μM drug) | Cell viability (% of negative control) (Vero E6 cells; 1.56 μM drug) | Cell viability (% of negative control) (Vero E6 cells; 3.13 μM drug) | Cell viability (% of negative control) (Vero E6 cells; 6.25 μM drug) | Cell viability (% of negative control) (Vero E6 cells; 12.5 μM drug) | Cell viability (% of negative control) (Vero E6 cells; 25 μM drug) | Cell viability (% of negative control) (Vero E6 cells; 50 μM drug) | Cell viability (% of negative control) (Vero E6 cells; 100 μM drug) | Number of copies of viral genome (MOI = 0.05) (SARS-CoV-2; 100 μM drug) [copies] | Cell viability (% of negative control) (Vero E6 cells; 200 μM drug) | Toxic effect on the cells (in words) (Vero E6 cells; all the tested concentrations) | Number of copies of viral genome (MOI = 0.05) (SARS-CoV-2; 0.94 μM drug) [copies] | Number of copies of viral genome (MOI = 0.05) (SARS-CoV-2; 1.88 μM drug) [copies] | other results
1 | C=C1C(=O)O[C@@]23[C@H]1CC[C@@H](C)[C@@H]2CC[C@@]1(C)O[C@@H]31 [arteannuin B] | 99188163 | 98310684 | 13307075 | 342654 | 176411 | dose-dependent | effectively reduced viral nucleic acid load | 93.55 % of negative control | 90.63 % of negative control | 94.86 % of negative control | 102.66 % of negative control | 111.44 % of negative control | 95.10 % of negative control | 74.40 % of negative control | 26.24 % of negative control |  |  |  |  |  | Number of copies of viral genome (MOI = 0.05) (SARS-CoV-2; 1.56 μM drug): 99554711 copies; Inhibition of replication of SARS-CoV-2 virus genome in the infection supernatant (in words) (SARS-CoV-2; at 50 μM, 25 μM and 12.5 μM): effectively inhibit; Toxic effect on the cells (in words) (Vero E6 cells; at 25 μM or lower): no toxic effect; Toxic effect on the cells (in words) (Vero E6 cells; at 50 μM): a certain toxicity
2 | CO[C@H]1O[C@@H]2O[C@@]3(C)CC[C@H]4[C@H](C)CC[C@@H]([C@H]1C)[C@@]24OO3 [artemether] |  | 49305413 | 68497905 | 32850309 | 26849476 |  |  |  | 107.12 % of negative control | 103.68 % of negative control | 115.71 % of negative control | 115.49 % of negative control | 118.96 % of negative control | 120.26 % of negative control | 130.18 % of negative control | 3326694 | 132.83 % of negative control | no toxic effect |  |  | Number of copies of viral genome (MOI = 0.05) (SARS-CoV-2; 200 μM drug): 250314 copies
3 | C[C@@H]1CC[C@H]2[C@@H](C)C(=O)O[C@@H]3O[C@@]4(C)CC[C@@H]1[C@]32OO4 [artemisinin] |  | 79058074 | 72012135 | 61918172 | 31079912 | dose-dependent | effectively reduced viral nucleic acid load |  | 98.45 % of negative control | 101.55 % of negative control | 104.23 % of negative control | 112.55 % of negative control | 104.26 % of negative control | 110.71 % of negative control | 109.14 % of negative control | 37237188 | 97.14 % of negative control | no toxic effect |  |  | Number of copies of viral genome (MOI = 0.05) (SARS-CoV-2; 150 μM drug): 25440652 copies; Inhibition of replication of SARS-CoV-2 virus genome in the infection supernatant (in words) (SARS-CoV-2; at 150 μM, 100 μM and 50 μM): effectively inhibit
4 | C[C@H]1[C@H](OC(=O)CCC(=O)O)O[C@@H]2O[C@@]3(C)CC[C@H]4[C@H](C)CC[C@@H]1[C@@]24OO3 [artesunate] | 170594446 | 113126147 | 111098018 | 70210200 |  | dose-dependent | effectively reduced viral nucleic acid load | 100.09 % of negative control | 99.91 % of negative control | 97.52 % of negative control | 100.64 % of negative control | 93.38 % of negative control | 84.24 % of negative control | 55.44 % of negative control | 21.71 % of negative control |  |  |  | 228511812 | 171362509 | Inhibition of replication of SARS-CoV-2 virus genome in the infection supernatant (in words) (SARS-CoV-2; at 25 μM, 12.5 μM and 6.25 μM): effectively inhibit; Toxic effect on the cells (in words) (Vero E6 cells; at 12.5 μM or lower): no toxic effect; Toxic effect on the cells (in words) (Vero E6 cells; at 25 μM): a slight toxicity
5 | C[C@H]1[C@@H](O)O[C@@H]2O[C@@]3(C)CC[C@H]4[C@H](C)CC[C@@H]1[C@@]24OO3 [dihydroartemisinin] | 90162353 | 55425811 | 31485734 | 23363010 |  |  |  | 93.93 % of negative control | 98.80 % of negative control | 93.03 % of negative control | 100.38 % of negative control | 88.94 % of negative control | 66.36 % of negative control | 22.18 % of negative control | 2.33 % of negative control |  |  |  | 111625955 | 68962319 | Toxic effect on the cells (in words) (Vero E6 cells; at 6.25 μM or lower): no toxic effect; Toxic effect on the cells (in words) (Vero E6 cells; at 12.5 μM): a slight toxicity
